Data published in ChEMBL document CHEMBL4330144, “A mitochondria-targeted organic arsenical accelerates mitochondrial metabolic disorder and function injury” (Bioorg Med Chem, 2019).

Tested on: NB-4
Experiment: Induction of mitochondrial membrane potential loss in human NB4 cells by JC1 staining based flow cytometry (reference value: 27.7%)
Assay type: functional

N#CC(C#N)=NNc1cccc(Cl)c1 [CARBONYL CYANIDE M-CHLOROPHENYLHYDRAZONE]
Activity: 93%
